The results in this text go back to US20240270750A1, “IMIDAZOLE-CONTAINING INHIBITORS OF ALK2 KINASE” (BioCryst Pharmaceuticals, Inc., priority 2021, published 2024).

Broadly, the inhibition is the change of the read-out against control, counted positive when it falls.

For this assay, the target named is T1, ALK2 (Homo sapiens, UniProt Q04771).
T1 construct: purchased ThermoFisher Scientific (Life Technologies)
T1 sequence (Q04771 21-509): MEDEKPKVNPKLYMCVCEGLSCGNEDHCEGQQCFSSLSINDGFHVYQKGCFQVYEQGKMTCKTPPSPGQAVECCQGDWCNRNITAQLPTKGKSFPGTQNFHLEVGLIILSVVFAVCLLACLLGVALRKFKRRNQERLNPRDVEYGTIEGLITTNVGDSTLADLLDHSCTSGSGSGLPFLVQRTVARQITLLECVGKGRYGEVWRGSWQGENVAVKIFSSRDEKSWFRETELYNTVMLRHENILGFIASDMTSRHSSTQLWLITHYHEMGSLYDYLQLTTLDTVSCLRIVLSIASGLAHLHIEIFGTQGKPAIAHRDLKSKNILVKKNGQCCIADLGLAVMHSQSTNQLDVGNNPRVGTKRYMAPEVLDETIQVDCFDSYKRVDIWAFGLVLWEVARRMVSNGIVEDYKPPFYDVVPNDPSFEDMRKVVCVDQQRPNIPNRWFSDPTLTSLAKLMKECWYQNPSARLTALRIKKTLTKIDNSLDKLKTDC
Put plainly: LanthaScreen Eu Kinase Binding Assay, ALK2 inhibition. Particulars: 1 micromolar concentration. How it is done: Biochemical assays to measure the inhibitory effects of the compounds were performed by ThermoFisher Scientific (Life Technologies). ALK2 inhibition was tested using LanthaScreen™ Eu Kinase Binding Assay screening protocol.
On the technique in general: Time-resolved FRET reads energy transfer from a long-lived donor to a nearby acceptor.

A value given as a limit tells only on which side of the number the result lay.

In the case of `COc1cc(-n2cnc(Nc3nc(C(C)C)nc4c3cnn4C3CC3)c2)cc(OC)c1OC` [Compound 14f, 1-cyclopropyl-6-isopropyl-N-(1-(3,4,5-trimethoxyphenyl)-1H-imidazol-4-yl)-1H-pyrazolo[3,4-d]pyrimidin-4-amine], the inhibition at 1 µM was > 50%.

For the compound `COc1cc(-n2cnc(Nc3nc(C4CC(OCc5ccccc5)C4)nc4c3cnn4C(C)C)c2)cc(OC)c1OC` (stereo not shown) [Compound 57e, 6-(3-(benzyloxy)cyclobutyl)-1-isopropyl-N-(1-(3,4,5-trimethoxyphenyl)-1H-imidazol-4-yl)-1H-pyrazolo[3,4-d]pyrimidin-4-amine], the inhibition at 1 µM was > 50%.

Turning to `C=Cc1nc(Nc2cn(-c3cc(OC)c(OC)c(OC)c3)cn2)c2cnn(C(C)C)c2n1` [Compound 104a, 1-isopropyl-N-(1-(3,4,5-trimethoxyphenyl)-1H-imidazol-4-yl)-6-vinyl-1H-pyrazolo[3,4-d]pyrimidin-4-amine], the inhibition at 1 µM is > 50%.

Turning to `COc1cc2nc(Nc3cn(-c4cc(OC)c(OC)c(OC)c4)cn3)nc(C(C)C)c2cc1OC` [Compound 87a, 4-isopropyl-6,7-dimethoxy-N-(1-(3,4,5-trimethoxyphenyl)-1H-imidazol-4-yl)quinazolin-2-amine], the inhibition at 1 µM is > 50%.
